# Data taken from ChEMBL document CHEMBL4823243, “Synergistic induction of apoptosis in resistant head and neck carcinoma and leukemia by alkoxyamide-based histone deacetylase inhibitors” (Eur J Med Chem, 2021).
# Calls of active or inactive are those of the source. No cut-off for these calls is given here.
# Legend:
# [1] = target: T1, Histone deacetylase (Homo sapiens) (UniProt Q13547+O15379+Q9UBN7+Q92769+Q9UQL6+Q8WUI4+Q9BY41+Q96DB2+P56524+Q9UKV0+Q969S8); assay: Inhibition of HDAC in human Cal27CisR cells assessed as combination index at 0.5 uM measured in presence of 20 uM cDDP by MTT-based Chou-Talalay method; assay type: cell-based
# [2] = target: T1, Histone deacetylase (Homo sapiens); assay: Inhibition of HDAC in human CAL-27 cells assessed as combination index at 0.2 uM measured in presence of 10 uM cDDP by MTT-based Chou-Talalay method; assay type: cell-based
# [3] = target: T1, Histone deacetylase (Homo sapiens); assay: Inhibition of HDAC in human Cal27CisR cells assessed as combination index at 0.4 uM measured in presence of 20 uM cDDP by MTT-based Chou-Talalay method; assay type: cell-based
# [4] = target: T1, Histone deacetylase (Homo sapiens); assay: Inhibition of HDAC in human Cal27CisR cells assessed as combination index at 0.1 uM measured in presence of 10 uM cDDP by MTT-based Chou-Talalay method; assay type: cell-based
# CAL-27 [5] = assay: Induction of apoptosis in human CAL-27 cells assessed as caspase 3 activation at 0.3 uM pretreated for 24 hrs followed by cisplatin treatment and further incubated for 18 hrs by Caspase3/7 detection reagent based assay; assay type: functional, cell-based; settings: time 42.0 hrs
# [6] = target: T1, Histone deacetylase (Homo sapiens); assay: Inhibition of HDAC in human Cal27CisR cells assessed as combination index at 0.4 uM measured in presence of 10 uM cDDP by MTT-based Chou-Talalay method; assay type: cell-based
# [7] = target: T1, Histone deacetylase (Homo sapiens); assay: Inhibition of HDAC in human Cal27CisR cells assessed as combination index at 0.4 uM measured in presence of 50 uM cDDP by MTT-based Chou-Talalay method; assay type: cell-based
# [8] = target: T1, Histone deacetylase (Homo sapiens); assay: Inhibition of HDAC in human Cal27CisR cells assessed as combination index at 0.1 uM measured in presence of 20 uM cDDP by MTT-based Chou-Talalay method; assay type: cell-based
# [9] = target: T1, Histone deacetylase (Homo sapiens); assay: Inhibition of HDAC in human CAL-27 cells assessed as combination index at 0.25 uM measured in presence of 10 uM cDDP by MTT-based Chou-Talalay method; assay type: cell-based
# [10] = target: T1, Histone deacetylase (Homo sapiens); assay: Inhibition of HDAC in human CAL-27 cells assessed as combination index at 0.3 uM measured in presence of 2 uM cDDP by MTT-based Chou-Talalay method; assay type: cell-based
# [11] = target: T1, Histone deacetylase (Homo sapiens); assay: Inhibition of HDAC in human Cal27CisR cells assessed as combination index at 0.5 uM measured in presence of 10 uM cDDP by MTT-based Chou-Talalay method; assay type: cell-based
# [12] = target: T1, Histone deacetylase (Homo sapiens); assay: Inhibition of HDAC in human Cal27CisR cells assessed as combination index at 0.6 uM measured in presence of 50 uM cDDP by MTT-based Chou-Talalay method; assay type: cell-based
# [13] = target: T1, Histone deacetylase (Homo sapiens); assay: Inhibition of HDAC in human CAL-27 cells assessed as combination index at 0.4 uM measured in presence of 2 uM cDDP by MTT-based Chou-Talalay method; assay type: cell-based
# [14] = target: T1, Histone deacetylase (Homo sapiens); assay: Inhibition of HDAC in human CAL-27 cells assessed as potentiation of cisplatin-induced cytotoxicity by measuring fold reduction in cisplatin IC50 at 0.3 to 0.5 uM pretreated for 48 hrs followed by cisplatin addition and measured after 72 hrs by MTT assay relative to cisplatin alone; assay type: cell-based; settings: dose 0.3-0.5 µM, time 120.0 hrs
# [15] = target: T1, Histone deacetylase (Homo sapiens); assay: Inhibition of HDAC in human CAL-27 cells assessed as combination index at 0.4 uM measured in presence of 5 uM cDDP by MTT-based Chou-Talalay method; assay type: cell-based
# CAL-27 [16] = assay: Induction of DNA damage in human CAL-27 cells assessed as increase in gamma H2AX phosphorylation pretreated for 24 hrs followed by cisplatin treatment and further incubated for 18 hrs measured by Western blot analysis; assay type: functional, cell-based; settings: time 42.0 hrs
# [17] = target: T1, Histone deacetylase (Homo sapiens); assay: Inhibition of HDAC in human CAL-27 cells assessed as combination index at 0.1 uM measured in presence of 10 uM cDDP by MTT-based Chou-Talalay method; assay type: cell-based
# [18] = target: T1, Histone deacetylase (Homo sapiens); assay: Inhibition of HDAC in human Cal27CisR cells assessed as combination index at 0.3 uM measured in presence of 50 uM cDDP by MTT-based Chou-Talalay method; assay type: cell-based
# [19] = target: T1, Histone deacetylase (Homo sapiens); assay: Inhibition of HDAC in human CAL-27 cells assessed as combination index at 0.25 uM measured in presence of 5 uM cDDP by MTT-based Chou-Talalay method; assay type: cell-based
# [20] = target: T1, Histone deacetylase (Homo sapiens); assay: Inhibition of HDAC in human CAL-27 cells assessed as combination index at 0.3 uM measured in presence of 10 uM cDDP by MTT-based Chou-Talalay method; assay type: cell-based
# [21] = target: T1, Histone deacetylase (Homo sapiens); assay: Inhibition of HDAC in human CAL-27 cells assessed as combination index at 0.35 uM measured in presence of 2 uM cDDP by MTT-based Chou-Talalay method; assay type: cell-based
# CAL-27 [22] = assay: Induction of apoptosis in cisplatin resistant human CAL-27 cells assessed as caspase 7 activation at 0.3 uM pretreated for 24 hrs followed by cisplatin treatment and further incubated for 18 hrs by Caspase3/7 detection reagent based assay; assay type: functional, cell-based; settings: time 42.0 hrs
# [23] = target: T1, Histone deacetylase (Homo sapiens); assay: Inhibition of HDAC in human Cal27CisR cells assessed as combination index at 0.3 uM measured in presence of 20 uM cDDP by MTT-based Chou-Talalay method; assay type: cell-based
# [24] = target: T1, Histone deacetylase (Homo sapiens); assay: Inhibition of HDAC in human Cal27CisR cells assessed as combination index at 0.6 uM measured in presence of 10 uM cDDP by MTT-based Chou-Talalay method; assay type: cell-based
# [25] = target: T1, Histone deacetylase (Homo sapiens); assay: Inhibition of HDAC in human CAL-27 cells assessed as combination index at 0.35 uM measured in presence of 10 uM cDDP by MTT-based Chou-Talalay method; assay type: cell-based
# [26] = target: T1, Histone deacetylase (Homo sapiens); assay: Inhibition of HDAC in human Cal27CisR cells assessed as combination index at 0.2 uM measured in presence of 10 uM cDDP by MTT-based Chou-Talalay method; assay type: cell-based
# [27] = target: T1, Histone deacetylase (Homo sapiens); assay: Inhibition of HDAC in human CAL-27 cells assessed as combination index at 0.3 uM measured in presence of 5 uM cDDP by MTT-based Chou-Talalay method; assay type: cell-based
# [28] = target: T1, Histone deacetylase (Homo sapiens); assay: Inhibition of HDAC in human Cal27CisR cells assessed as combination index at 0.6 uM measured in presence of 20 uM cDDP by MTT-based Chou-Talalay method; assay type: cell-based
# CAL-27 [29] = assay: Induction of apoptosis in cisplatin resistant human CAL-27 cells assessed as caspase 3 activation at 0.3 uM pretreated for 24 hrs followed by cisplatin treatment and further incubated for 18 hrs by Caspase3/7 detection reagent based assay; assay type: functional, cell-based; settings: time 42.0 hrs
# Cal27CisR = assay: Induction of apoptosis in human Cal27CisR cells assessed as caspase 3 activation at 0.3 uM pretreated for 24 hrs followed by cisplatin treatment and further incubated for 18 hrs by Caspase3/7 detection reagent based assay; assay type: functional, cell-based; settings: time 42.0 hrs
# HL-60 = assay: Antiproliferative activity against human HL-60 cells assessed as reduction in cell viability for 72 hrs by Celltitre-Glo luminescent assay; assay type: functional, cell-based; settings: HL-60, 72 h
Structure (SMILES),CI [1],CI [2],CI [3],CI [4],Activity (CAL-27 [5]),CI [6],CI [7],CI [8],CI [9],CI [10],CI [11],CI [12],CI [13],Ratio IC50 [14],CI [15],Activity (CAL-27 [16]),CI [17],CI [18],CI [19],CI [20],other results
O=C(CCCCCONC(=O)c1cc2ccccc2[nH]1)NO,0.21,0.04,0.14,4.3,Active,0.59,0.47,2.3,0.03,0.35,0.27,0.41,0.14,2.73,0.04,Active,0.22,0.47,0.11,0.02,CI [21]: 0.21; Activity (CAL-27 [22]): Active; CI [23]: 0.29; CI [24]: 0.19; CI [25]: 0.02; CI [26]: 2.72; CI [27]: 0.06; CI [28]: 0.24; Activity (CAL-27 [29]): Active; Activity (Cal27CisR): Active
O=C(CCCCCONC(=O)c1ccc2ccccc2n1)NO,0.33,0.04,0.26,2.62,Active,0.11,0.47,5.25,0.03,0.88,0.13,0.38,0.48,3.2,0.04,Active,0.22,0.44,0.94,0.02,IC50 (HL-60): 270 nM; CI [21]: 0.68; Activity (CAL-27 [22]): Active; CI [23]: 0.37; CI [24]: 0.1; CI [25]: 0.02; CI [26]: 0.27; CI [27]: 0.06; CI [28]: 0.45; Activity (CAL-27 [29]): Active; Activity (Cal27CisR): Active
O=C(CCCCCONC(=O)c1nccc2ccccc12)NO,–,–,–,–,–,–,–,–,–,–,1.11,–,–,–,–,Active,–,–,–,–,IC50 (HL-60): 561 nM
